Measurements: publication PMC4063337, “Structure–Activity Relationships of Quinoxaline-Based 5-HT3A and 5-HT3AB Receptor-Selective Ligands” (Chemmedchem, 2013)

Tests used:
5-HT3A receptor = target: T1, 5-HT3A receptor (Homo sapiens, UniProt P46098); experiment: [3H]granisetron competition binding, HEK293 membranes; conditions: for Ki: read-out: pKi (A) (converted); for pKi (A): 0.7 nM [3H]granisetron, 10 mM HEPES pH 7.4, 4 °C, at least 24 h
T1 construct: gene HTR3A; homomeric (pentameric) receptor expressed recombinantly in HEK293 cells; cell membranes
T1 sequence (P46098 24-478): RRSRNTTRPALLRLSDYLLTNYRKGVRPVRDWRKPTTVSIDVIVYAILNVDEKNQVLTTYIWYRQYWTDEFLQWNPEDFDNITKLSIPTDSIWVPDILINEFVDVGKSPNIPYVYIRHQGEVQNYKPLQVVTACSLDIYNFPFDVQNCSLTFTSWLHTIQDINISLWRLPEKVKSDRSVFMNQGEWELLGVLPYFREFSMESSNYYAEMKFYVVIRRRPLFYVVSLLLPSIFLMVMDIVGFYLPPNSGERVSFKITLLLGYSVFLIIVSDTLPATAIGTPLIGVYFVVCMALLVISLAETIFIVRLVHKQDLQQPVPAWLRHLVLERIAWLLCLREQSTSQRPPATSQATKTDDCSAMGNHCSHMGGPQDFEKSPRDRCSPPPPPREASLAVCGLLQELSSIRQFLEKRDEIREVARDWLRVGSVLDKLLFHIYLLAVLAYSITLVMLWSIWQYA
From the text: [3H]granisetron competition binding, HEK293 membranes on 5-HT3A receptor

5-HT3AB receptor = target: T2, 5-HT3AB receptor (Homo sapiens, UniProt O95264+P46098); experiment: as above; conditions: for Ki: read-out: pKi (AB) (converted)
T2 construct: gene HTR3A; heteromeric (pentameric) receptor expressed recombinantly in HEK293 cells; cell membranes; sites at A+A- and possibly A+B- interfaces; with 5-hydroxytryptamine receptor 3B
T2 sequence (P46098 24-478): T1 sequence (P46098 24-478)
T2 sequence (O95264 22-441): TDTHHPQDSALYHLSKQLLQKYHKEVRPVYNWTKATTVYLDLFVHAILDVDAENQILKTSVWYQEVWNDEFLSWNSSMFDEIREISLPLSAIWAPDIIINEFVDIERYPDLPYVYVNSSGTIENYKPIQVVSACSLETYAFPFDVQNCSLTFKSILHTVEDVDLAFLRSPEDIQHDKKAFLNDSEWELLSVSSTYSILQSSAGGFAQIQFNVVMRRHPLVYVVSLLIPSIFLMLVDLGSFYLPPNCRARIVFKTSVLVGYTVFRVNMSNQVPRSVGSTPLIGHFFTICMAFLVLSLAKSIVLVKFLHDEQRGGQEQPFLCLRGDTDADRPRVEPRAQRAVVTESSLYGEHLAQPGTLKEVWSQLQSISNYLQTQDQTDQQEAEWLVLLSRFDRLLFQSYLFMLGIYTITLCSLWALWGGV
From the text: [3H]granisetron competition binding, HEK293 membranes on 5-HT3AB receptor

Compound | Ki (5-HT3A receptor) [nM] | Ki (5-HT3AB receptor) [nM] | pKi (A) (5-HT3A receptor) | pKi (AB) (5-HT3AB receptor; 0.7 nM [3H]granisetron, 10 mM HEPES pH 7.4, 4 °C, at least 24 h)
CN1CCN(c2cnc3cc(Cl)c(Cl)cc3n2)CC1 [compound 7, 6,7-Dichloro-2-(4-methylpiperazin-1-yl)quinoxaline] | 3.89 | 8.51 | – | –
CCc1nc2ccccc2nc1N1CCN(C)CC1 [compound 6, 2-Ethyl-3-(4-methylpiperazin-1-yl)quinoxaline] | 0.631 | 1.45 | – | –
CN1CCN(c2nc3ccccc3nc2C(F)(F)F)CC1 [compound 27, 27] | 44.7 | 38 | – | –
CN1CCN(c2nc3ccc(Cl)cc3[nH]c2=O)CC1 [compound 22, 7-chloro-3-(4-methylpiperazin-1-yl)quinoxalin-2(1H)-one] | 31.6 | 7.24 | – | –
CN1CCN(c2nc3ccc(Cl)cc3nc2Cl)CC1 [compound 23, 3,6-Dichloro-2-(4-methylpiperazin-1-yl)quinoxaline] | 1.12 | 14.1 | – | –
CN1CCN(c2nc3ccccc3nc2Oc2ccccc2)CC1 [compound 31, 31] | 87.1 | 170 | – | –
CN1CCN(c2cnc3cc(Cl)ccc3n2)CC1 [compound 33, 33] | 16.2 | 102 | – | –
CNC1CCN(c2cnc3ccccc3n2)C1 (stereo not shown) [compound 21, N-Methyl-1-(quinoxalin-2-yl)pyrrolidin-3-amine] | 32.4 | 77.6 | – | –
CCOc1nc2ccccc2nc1N1CCN(C)CC1 [compound 29, 29] | 1 | 5.75 | – | –
CN1CCN(c2nc3ccccc3nc2N)CC1 [compound 10, 3-(4-Methylpiperazin-1-yl)quinoxalin-2-amine] | 2.95 | 30.9 | – | –
Cc1nc2ccccc2nc1N1CCN(C)CC1 [compound 26, 26] | 2.57 | 3.8 | – | –
CN1CCN(c2nc3cc(Cl)c(Cl)cc3nc2Cl)CC1 [compound 11, 2,6,7-Trichloro-3-(4-methylpiperazin-1-yl)quinoxaline] | 8.13 | 33.1 | – | –
CN1CCN(c2nc3ccccc3nc2OCc2ccccc2)CC1 [compound 32, 32] | 129 | 75.9 | – | –
CN1CCCN(c2cnc3ccccc3n2)CC1 [compound 19, 2-(4-Methyl-1,4-diazepan-1-yl)quinoxaline] | 8.13 | 33.1 | – | –
CN1CCN(c2cnc3ccccc3n2)CC1 [compound 24, 2-(4-methylpiperazin-1-yl)quinoxaline] | – | – | 8.21±0.26 | 9.13±0.30
CN1CCN(c2nc3ccccc3nc2Cl)CC1 [VUF10166, 2-chloro-3-(4-methylpiperazin-1-yl)quinoxaline] | – | 12.6 | 9.82±0.26 | –
COc1nc2ccccc2nc1N1CCN(C)CC1 [compound 28, 28] | 0.661 | 4.57 | – | –
CNC1CCN(c2nc3ccccc3nc2Cl)C1 (stereo not shown) [compound 18, 1-(3-Chloroquinoxalin-2-yl)-N-methylpyrrolidin-3-amine] | 204 | 214 | – | –
CN1CCCN(c2nc3ccccc3nc2Cl)CC1 [compound 16, 2-Chloro-3-(4-methyl-1,4-diazepan-1-yl)quinoxaline] | 0.776 | 4.57 | – | –
CN1CCN(c2nc3cc(Cl)c(Cl)cc3[nH]c2=O)CC1 [compound 34, 34] | 50.1 | 72.4 | – | –
CN1CCN(c2nc3ccccc3nc2Br)CC1 [compound 14, 2-Bromo-3-(4-methylpiperazin-1-yl)quinoxaline] | 0.49 | 1.41 | – | –
CN1CCN(c2nc3ccccc3[nH]c2=O)CC1 [compound 1, 3-(4-methylpiperazin-1-yl)quinoxalin-2-ol] | 1.17 | 0.437 | – | –
CN1CCN(c2nc3ccccc3nc2OC2CCCCC2)CC1 [compound 30, 30] | 537 | 195 | – | –
